From patent publication US20220411478A1, “CD70 TARGETED CHIMERIC ANTIGEN RECEPTOR (CAR) T CELLS AND USES THEREOF” (priority 2019, published 2022)

What was measured:
CD70 CAR-T cells [1] = experiment: T-cell subset and activation/exhaustion markers under AZA, co-culture with Molm13; conditions: highest concentrations of AZA
[2] = test system: OCI-AML3 and Molm13 AML lines; experiment: CD70 surface expression after incubation with AZA (flow cytometry), AML lines; format: cell-based, human
Excerpt: (§1) The following antibody clones targeting their respective antigens were used for flow cytometric analysis where indicated: CD70 (113-16, Biolegend), PeCy7 isotype (MOPC-21, Biolegend), CD69 (FN50, Biolegend), CD107a (H4A3, Biolegend), mouse TER-119 (TER-119, Biolegend), mouse NK-1.1 (PK136, Biolegend), mouse Ly-6G/Ly-6C (Gr-1, Biolegend), mouse CD11b (Biolegend). In general, cells were stained for fifteen minutes in the dark at 4 degrees Celsius and washed in PBS with 2% FBS. When used, DAPI was added to establish live versus dead separation. Trucount tubes (BD Biosciences, 340334) were used for murine blood CAR quantification according to kit instructions. Quantum Simply Cellular beads (Bangs Laboratories, 815) were used to quantify CD70 surface expression.

Molm13 [3] = experiment: CD70 and CD33 expression on AML in vivo after AZA (femur aspirates, flow cytometry); design: species or system NSG mice; conditions: five days of AZA IP
Excerpt: as §1
4.3.1 was used for analysis.
Femur aspirates were analyzed for tumor cells and their CD70 expression via flow cytometry (FIG. 4C). CD70 expression level was compared to isotype controls for each mouse.

Molm13 [4] = experiment: Real-time cytotoxicity assay (impedance) after AZA incubation of CAR-T cells; format: cell-based, human; conditions: CAR-T cells treated in 1 μM AZA, after 96 hours
Procedure: Cell index was recorded as a measure of impedance using the xCELLigence RTCA SP instrument (ACEA biosciences). […] 125,000 Molm13 cells per well were then plated for 28 hours followed by administration of 125,000 CAR-T cells. Cell index was tracked for 96 hours.

CD70 CAR-T cells [5] = experiment: AZA exposure of CD70 CAR-T cells: cell number and viability; format: cell-based, human; conditions: increasing concentrations of AZA, 24 hours, IL-2
CD70 CAR-T cells [6] = experiment: Plate bound antigen activation assay after AZA incubation; format: cell-based, human; conditions: 100 μM AZA (supratherapeutic), 24 hours, washed, plate-bound CD70 overnight
Procedure: After washing in PBS, trD27 or CAR T cells were added for 12 hours followed by flow cytometric staining for CD69.

[7] = test system: solid tumor cell lines as well as primary AML blasts; conditions: hypomethylation of the CD70 promoter; cited from earlier work
Molm13 [8] = experiment: Aggressive Molm13 AML xenograft, azacitidine with CD70 CAR-T cells
Procedure: For IHC, murine femurs were washed in PBS and then incubated overnight in 4% paraformaldehyde (PF Thermo-Fisher Scientific AAJ19943K2), followed by an overnight incubation in Cal-ex decalcifier (Fisher Scientific, CS510-1D) and then storage in 70% ethanol until staining. Antibody clones for IHC included the following: CD3 (2GV6, Roche) and CD45 (D9M81, Cell Signaling Technology).
NOD-SCID-γ chain−/− (NSG) (Jackson Laboratories) mice were engrafted with Molm13 cell lines as described for the individual experiments. Mice were maintained at the MGH Center for Cancer Research and all care and conducted experiments were carried out using protocols approved by the Massachusetts General Hospital Institutional Animal Care and Use Committee. […] Cryopreserved CD70 CAR T cells or untransduced T cells were injected intravenously via tail vein at the indicated time points. Tumor burden was monitored via bioluminescence following intraperitoneal injection of D-luciferin substrate solution. AMI spectral imaging was used to perform the image capture and IDL software v. 4.3.1 was used for analysis. Animals were euthanized per the experimental protocol or when they met a priori defined endpoints by IACUC.
A complementary technique was used to verify tumor burden and CAR-T cell expansion. […] To determine if these were cancer cells or infiltrating CAR-T cells, human CD3 was stained.

## Nc1ncn([C@@H]2O[C@H](CO)[C@@H](O)[C@H]2O)c(=O)n1 [AZA, azacitidine]
CD70 CAR-T cells [1]
  PD-1: decreases
  Tim 3: decreases
  effector memory phenotypes: increase in effector memory phenotypes
[2]; 10 μM AZA, FIG. 15, cell line not named
  CD70 expression: bulk increase in CD70 expression
[2]; incubated with AZA for 20 and 44 hours
  CD70 expression: increase in CD70 expression at higher concentrations
Molm13 [3]
  increase in myeloid marker CD33: not observed
Molm13 [4]
  CAR-T cytotoxicity vs control: no statistically significant difference from control
CD70 CAR-T cells [5]
  number of CAR-T cells surviving: same number of CAR-T cells survived
  viability of CAR-T cells: preserved across all conditions
CD70 CAR-T cells [6]
  CAR-T cell activation (CD69) compared to control: significant reduction in activation
[7]
  CD70 surface expression: increased CD70 surface expression
Molm13 [8]; AZA 2.5 mg/kg/day IP day +18 for 5 days, T cells day +22
  treatment effect / tumor control (BLI): slight treatment effect
Molm13 [8]; femurs at sacrifice
  human CD45 staining of bones (immunohistochemistry): abundant human CD45 staining
